Test systems include HT29 colon; U251 CNS; OVCAR-5 ovarian; NCI-H460 lung; OVCAR-8 ovarian; MDA-MB-231 breast; OVCAR-4 ovarian; A498 renal; HCC-2998 colon; RXF 393 renal.
Holding throughout (assay): NCI anticancer screen, dose series, 48 h

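How tested: cells in 96-well plates exposed to compound for 48 hours at five concentrations. GI50 = concentration required for 50% inhibition of growth. TGI denotes the concentration required for complete inhibition of growth.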 A value given as a limit tells only on which side of the number the result lay.

On to `CCN(CC)CCOc1ccc(/C=C2\CC3C4CCC5=CC(=O)CC[C@]5(C)C4CC[C@]3(C)C2=O)cc1OC` (some centres undefined), for which the GI50 was 1.3 µM in the experiment with HT29 colon; 2.57 µM in the experiment with U251 CNS; 3.6 µM with OVCAR-5 ovarian; 2.85 µM with NCI-H460 lung; 4.09 µM in the experiment with OVCAR-8 ovarian; 2.55 µM in the experiment on MDA-MB-231 breast. For the same compound, the GI50 was 10.6 µM with OVCAR-4 ovarian, 1.99 µM in the experiment with A498 renal, 2.18 µM in the experiment with HCC-2998 colon and 1.85 µM in the experiment on RXF 393 renal. Also, the TGI is over 100 µM in the experiment with HT29 colon; 8.39 µM in the experiment on U251 CNS; 17.4 µM in the experiment with OVCAR-5 ovarian; 11.2 µM in the experiment with NCI-H460 lung; 18.2 µM in the experiment on OVCAR-8 ovarian; 6.17 µM in the experiment with MDA-MB-231 breast. The TGI was over 100 µM in the experiment on OVCAR-4 ovarian, 8.48 µM in the experiment with A498 renal, 5.18 µM in the experiment on HCC-2998 colon and 4.56 µM in the experiment with RXF 393 renal.
For the compound `COC(=O)c1ccccc1NC(=O)/C(=N\NC(C)(C)C)C(C#N)c1nc(-c2ccc([N+](=O)[O-])cc2)cs1` (centres undefined), the TGI in the experiment on HT29 colon, with U251 CNS, with OVCAR-5 ovarian, in the experiment with NCI-H460 lung, in the experiment with OVCAR-8 ovarian and with MDA-MB-231 breast was over 100 µM throughout. Moreover, the TGI in the experiment with OVCAR-4 ovarian, in the experiment on A498 renal, with HCC-2998 colon and in the experiment on RXF 393 renal was over 100 µM throughout.
Take `CC(C)=CCc1c(O)cc(/C=C/c2cc(O)c3c(c2)C[C@@H]2C(C)(C)[C@H](O)[C@H](O)C[C@@]2(C)O3)cc1O`: the GI50 in the experiment on HT29 colon is 0.373 µM; in the experiment with U251 CNS it was 0.0533 µM; with OVCAR-5 ovarian, 1.36 µM; in the experiment with NCI-H460 lung it was 0.00146 µM; with OVCAR-8 ovarian, 1.92 µM; with MDA-MB-231 breast, 1.66 µM. Further, the GI50 in the experiment with OVCAR-4 ovarian was 0.831 µM; in the experiment with A498 renal, 1.22 µM; in the experiment on HCC-2998 colon it was 1.29 µM; with RXF 393 renal, under 0.001 µM. For the same compound, the TGI in the experiment with HT29 colon was 3.54 µM; with U251 CNS it was over 5.28 µM; in the experiment on OVCAR-5 ovarian, over 7.96 µM; in the experiment on NCI-H460 lung it was over 4.36 µM; with OVCAR-8 ovarian, over 10 µM; in the experiment with MDA-MB-231 breast, over 10 µM. The TGI worked out at 4.08 µM with OVCAR-4 ovarian, 9.57 µM with A498 renal and 4.17 µM in the experiment with HCC-2998 colon.
Regarding `O=Cc1ccc(-c2ccc(-c3ccc(C=O)s3)o2)s1`, the TGI with HT29 colon was over 100 µM; in the experiment on U251 CNS, over 50.8 µM; in the experiment on OVCAR-5 ovarian, 11 µM; in the experiment with NCI-H460 lung, over 100 µM; with OVCAR-8 ovarian, over 100 µM; with MDA-MB-231 breast, over 100 µM. Further, the TGI in the experiment with OVCAR-4 ovarian is over 100 µM; in the experiment on A498 renal, 0.732 µM; in the experiment on HCC-2998 colon, 51.5 µM; in the experiment with RXF 393 renal, 2.65 µM.
Consider `O=S1(=O)CCN(Cc2ccccn2)CC1`, for which the TGI in the experiment with HT29 colon, with U251 CNS, in the experiment with OVCAR-5 ovarian, with NCI-H460 lung, with OVCAR-8 ovarian and in the experiment with MDA-MB-231 breast was over 100 µM in each case. For the same compound, the TGI in the experiment on OVCAR-4 ovarian, with A498 renal, with HCC-2998 colon and in the experiment on RXF 393 renal was over 100 µM in each case.
On to `COC(CCP(=O)(c1ccccc1)c1ccccc1)(C(=O)c1ccccc1)c1ccccc1` (centres undefined), for which the GI50 in the experiment with HT29 colon is 4.65 µM; in the experiment on U251 CNS, 5.5 µM; with OVCAR-5 ovarian it was 10.1 µM; with NCI-H460 lung, 3.43 µM; with OVCAR-8 ovarian, 7.95 µM; with MDA-MB-231 breast it was 2.69 µM. In addition, the GI50 in the experiment with OVCAR-4 ovarian is 5.57 µM; with A498 renal, 3.4 µM; with HCC-2998 colon it was 4.11 µM; with RXF 393 renal, 0.213 µM. Besides, the TGI is 19.1 µM in the experiment with HT29 colon; 18.4 µM with U251 CNS; 23.7 µM with OVCAR-5 ovarian; 14 µM in the experiment with NCI-H460 lung; 27.8 µM in the experiment with OVCAR-8 ovarian; 17 µM in the experiment with MDA-MB-231 breast. The TGI in the experiment on OVCAR-4 ovarian is 21.4 µM; in the experiment on A498 renal, 16.8 µM; with HCC-2998 colon, 17.9 µM; with RXF 393 renal, 0.917 µM.
In the case of `COc1ccc(C(O)CNC(=O)c2ccccc2)cc1` (centres undefined), the TGI with HT29 colon, in the experiment on U251 CNS, in the experiment on OVCAR-5 ovarian, in the experiment on NCI-H460 lung, in the experiment with OVCAR-8 ovarian and in the experiment with MDA-MB-231 breast was over 100 µM in each case. Also, the TGI in the experiment on OVCAR-4 ovarian, with A498 renal, in the experiment with HCC-2998 colon and with RXF 393 renal was over 100 µM each time.
In the case of `CN1CCN(c2ccc3c4c(cccc24)C(=O)N(CCN2CCN(CCCN4CCN(CCN5C(=O)c6cccc7c(N8CCN(C)CC8)ccc(c67)C5=O)CC4)CC2)C3=O)CC1`, the GI50 is 1.13 µM in the experiment with HT29 colon; 7.43 µM in the experiment on U251 CNS; 5.79 µM in the experiment with OVCAR-5 ovarian; 5.54 µM in the experiment with NCI-H460 lung; 2.99 µM in the experiment on OVCAR-8 ovarian; 6.33 µM in the experiment with MDA-MB-231 breast. Further, the GI50 with OVCAR-4 ovarian is 8.01 µM; in the experiment with A498 renal, 9.79 µM; in the experiment with HCC-2998 colon, 0.738 µM; in the experiment on RXF 393 renal, 5.4 µM. Further, the TGI with HT29 colon came out at 4.31 µM; with U251 CNS, 14.3 µM; with OVCAR-5 ovarian, 11.9 µM; in the experiment on NCI-H460 lung, 33.5 µM; with OVCAR-8 ovarian, 10.7 µM; in the experiment with MDA-MB-231 breast, 13 µM. Also, the TGI is 19.4 µM in the experiment on OVCAR-4 ovarian, 17.4 µM in the experiment on A498 renal, 4.4 µM with HCC-2998 colon and 12 µM in the experiment with RXF 393 renal.
For the compound `COc1cccc(/C=N\Nc2ccc([N+](=O)[O-])cn2)c1O`, the GI50 in the experiment on HT29 colon is 28.8 µM; in the experiment with U251 CNS, 1.93 µM; in the experiment on OVCAR-5 ovarian, 5.71 µM; with NCI-H460 lung, 2.05 µM; with OVCAR-8 ovarian it was 2.55 µM; in the experiment on MDA-MB-231 breast, 3.95 µM. Moreover, the GI50 in the experiment on OVCAR-4 ovarian was 4.28 µM; in the experiment on A498 renal it was 2.42 µM; in the experiment on HCC-2998 colon, 8.01 µM; in the experiment on RXF 393 renal, 2.79 µM. The TGI is over 100 µM in the experiment on HT29 colon; 19.8 µM with U251 CNS; 82.7 µM in the experiment with OVCAR-5 ovarian; 11 µM with NCI-H460 lung; 15.6 µM with OVCAR-8 ovarian; 96.2 µM with MDA-MB-231 breast. Further, the TGI with OVCAR-4 ovarian was over 100 µM; in the experiment with A498 renal, 15.4 µM; in the experiment on HCC-2998 colon, over 100 µM; in the experiment with RXF 393 renal it was 12.7 µM.
For `O=C1C=C(Nc2ccccc2C(=O)CC(=O)C(=O)Nc2cccc(C(F)(F)F)c2)c2ccccc2C1=O`, the TGI was over 100 µM in the experiment on HT29 colon; 96.5 µM in the experiment on U251 CNS; over 100 µM with OVCAR-5 ovarian; over 100 µM in the experiment with NCI-H460 lung; 56.4 µM in the experiment on OVCAR-8 ovarian; over 91.1 µM in the experiment on MDA-MB-231 breast. Further, the TGI was over 87.4 µM in the experiment on OVCAR-4 ovarian, over 100 µM in the experiment with A498 renal, over 78 µM in the experiment on HCC-2998 colon and 93.3 µM in the experiment with RXF 393 renal.

Values taken from PubChem BioAssay (NCI).
